Assay results reported in article PMC6278960 (Haematologica, 2018).

Molecular target: protein disulfide isomerase (PDI) (Homo sapiens, UniProt P07237)
Experiment: turbidimetric insulin disulfide reduction assay with recombinant human PDI
Type: biochemical

Chain of protein disulfide isomerase (PDI) (P07237 18-508): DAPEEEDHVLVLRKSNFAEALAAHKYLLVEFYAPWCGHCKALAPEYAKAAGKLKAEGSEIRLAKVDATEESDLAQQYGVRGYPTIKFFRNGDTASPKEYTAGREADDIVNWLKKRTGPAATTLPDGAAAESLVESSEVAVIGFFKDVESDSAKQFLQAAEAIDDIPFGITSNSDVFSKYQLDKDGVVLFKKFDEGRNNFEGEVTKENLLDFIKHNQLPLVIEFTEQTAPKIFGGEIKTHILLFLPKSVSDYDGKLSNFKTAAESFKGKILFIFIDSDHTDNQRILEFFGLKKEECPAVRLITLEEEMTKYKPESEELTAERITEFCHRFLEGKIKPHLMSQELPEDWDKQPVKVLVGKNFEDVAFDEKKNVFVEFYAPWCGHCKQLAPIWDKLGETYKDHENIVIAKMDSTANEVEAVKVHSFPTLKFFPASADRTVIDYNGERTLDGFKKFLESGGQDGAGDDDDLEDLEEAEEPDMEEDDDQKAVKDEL

IC50: 9.98 µM
Substance: SK053
